The record followed here is patent US12528819B2 (priority 2016, dated 2026).

In this assay the target is T1, α5β2γ2 subtype GABAAR (Homo sapiens, UniProt P18507+P31644).
T1 construct: expressed in transfected cells
T1 sequence (P31644 32-462): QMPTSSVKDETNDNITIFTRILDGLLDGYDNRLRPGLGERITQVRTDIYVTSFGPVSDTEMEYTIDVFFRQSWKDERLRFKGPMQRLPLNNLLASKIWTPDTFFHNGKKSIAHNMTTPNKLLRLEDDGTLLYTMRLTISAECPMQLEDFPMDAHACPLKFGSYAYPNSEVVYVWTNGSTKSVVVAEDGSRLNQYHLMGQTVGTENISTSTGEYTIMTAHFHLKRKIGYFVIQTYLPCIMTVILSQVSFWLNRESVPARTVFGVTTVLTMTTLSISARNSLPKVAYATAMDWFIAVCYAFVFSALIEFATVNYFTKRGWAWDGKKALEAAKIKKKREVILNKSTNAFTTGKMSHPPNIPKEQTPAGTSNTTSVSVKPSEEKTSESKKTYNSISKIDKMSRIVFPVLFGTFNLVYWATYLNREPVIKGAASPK
T1 sequence (P47870 25-512 partner limits assumed): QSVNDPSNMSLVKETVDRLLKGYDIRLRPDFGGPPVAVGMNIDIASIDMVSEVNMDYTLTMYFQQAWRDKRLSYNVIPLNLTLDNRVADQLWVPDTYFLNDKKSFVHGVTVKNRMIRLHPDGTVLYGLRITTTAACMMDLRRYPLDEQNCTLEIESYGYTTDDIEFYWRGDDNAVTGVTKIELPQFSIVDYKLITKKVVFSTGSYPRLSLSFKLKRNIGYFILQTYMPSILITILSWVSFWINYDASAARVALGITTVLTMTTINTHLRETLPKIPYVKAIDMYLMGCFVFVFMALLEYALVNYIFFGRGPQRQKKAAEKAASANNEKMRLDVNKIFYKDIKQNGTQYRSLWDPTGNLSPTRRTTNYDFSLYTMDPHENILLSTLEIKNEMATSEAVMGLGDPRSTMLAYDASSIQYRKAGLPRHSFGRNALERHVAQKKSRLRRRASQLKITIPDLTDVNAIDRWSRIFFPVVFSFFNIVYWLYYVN
T1 sequence (P18507 40-467 limits assumed): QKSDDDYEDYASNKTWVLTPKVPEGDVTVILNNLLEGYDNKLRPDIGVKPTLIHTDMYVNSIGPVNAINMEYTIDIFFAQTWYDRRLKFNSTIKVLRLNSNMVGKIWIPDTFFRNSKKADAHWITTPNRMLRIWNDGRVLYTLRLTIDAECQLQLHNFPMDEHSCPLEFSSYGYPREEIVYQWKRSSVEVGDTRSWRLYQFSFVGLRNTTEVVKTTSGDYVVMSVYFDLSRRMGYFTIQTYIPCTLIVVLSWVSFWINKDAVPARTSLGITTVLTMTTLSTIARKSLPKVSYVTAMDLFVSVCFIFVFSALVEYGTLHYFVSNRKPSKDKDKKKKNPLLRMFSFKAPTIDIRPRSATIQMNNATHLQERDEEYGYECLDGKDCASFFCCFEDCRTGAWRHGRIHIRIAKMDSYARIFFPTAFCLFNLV
Description: Positive allosteric modulator activity: potentiation of EC20 GABA current in oocytes. The note with it: read-out: GABA α5 Functional Data (potentiation), @ 100 nM, reported as ranges. In kind it is cell-based. The protocol:
(B) Positive Allosteric Modulator Activity of Test Compounds on α5β2γ2 Subtype GABAAR
On day 1, 1 ng/32 nL of GABAA α5β2γ2 cDNA was injected into one oocyte. Test starts on day 2. The cDNA injected to the oocytes was a mix of alpha, beta and gamma, their ratio is 1:1:10 (by weight) and the total weight of the mixed 3 subunits to be injected in one oocyte was 1 ng in 32 nl volume. The injected oocytes can also be tested on day 3. In such case, the cDNA amount injected to the oocytes should be reduced by 20%.
Compounds of the present invention were tested using the following procedures.
• 1). 8 oocytes were placed in 8 chambers of OpusXpress and superfused with Modified Barth's Saline (MBS) at 3 mL/min. Glass electrodes back-filled with 3M KCl (0.5-3 megaohms) were used.
Control test (Diazepam or methyl 3,5-diphenylpyridazine-4-carboxylate) • 1). New oocytes was used to run new test. • 2). […] Oocytes were washed with MBS for 5-10 min. • 4). […] Itest was divided by IGABA to obtain potentiation (%). Test Compounds at Multiple Doses • 1). Repeat the above steps 1), 2) and 3) in the control test. • 2). […] Divide Itest by IGABA to obtain potentiation (%). • 3). Discard all tested oocytes, new oocytes were used and the above steps 1) and 2) were repeated to test second concentration of the same compound. Each oocyte was used for only one concentration test for a single test compound. The steps were repeated for other test compounds.
As for `CCOC(=O)c1ncn2c1Cc1c(C)nnn1-c1cc(OC)ccc1-2` [Compound 1], the activation at 0.1 µM is 20 to 50%.

`CCOC(=O)c1ncn2c1Cc1c(C)nnn1-c1cc(F)ccc1-2` [Compound 2]: the activation at 0.1 µM was 20 to 50%.

Take `CCOC(=O)c1ncn2c1Cc1c(COc3ccccc3)nnn1-c1cc(OC)ccc1-2` [Compound 9]: the activation at 0.1 µM is 20 to 50%.

`CCOC(=O)c1ncn2c1Cc1c(COc3ccc(F)cc3)nnn1-c1cc(OC)ccc1-2` [Compound 10]: the activation at 0.1 µM was in the range of 5 to 20%.

`CCOC(=O)c1ncn2c1Cc1c(COc3cccc(OC)c3)nnn1-c1cc(OC)ccc1-2` [Compound 11]: the activation at 0.1 µM is 20 to 50%.

In the case of `CCOC(=O)c1ncn2c1Cc1c(Cc3ccc(Cl)cc3)nnn1-c1cc(F)ccc1-2` [Compound 45], the activation at 0.1 µM was in the range of 20 to 50%.

As for `CCOC(=O)c1ncn2c1Cc1c(CN3CCCC3)nnn1-c1cc(OC)ccc1-2` [Compound 48], the activation at 0.1 µM is 20 to 50%.

As for `CCOC(=O)c1ncn2c1Cc1c(CN(CC)CC)nnn1-c1cc(OC)ccc1-2` [Compound 50], the activation at 0.1 µM was in the range of 5 to 20%.

Consider `CCOC(=O)c1ncn2c1Cc1c(CN(C)Cc3ccccc3)nnn1-c1cc(OC)ccc1-2` [Compound 51], for which the activation at 0.1 µM fell in the range of 5 to 20%.

On to `CCOC(=O)c1ncn2c1Cn1c(COc3ccccc3)nnc1-c1cc(OC)ccc1-2` [Compound 55], for which the activation at 0.1 µM lay within 20 to 50%.

`CCOC(=O)c1ncn2c1Cn1c(Oc3ccccc3)nnc1-c1cc(OC)ccc1-2` [Compound 104]: the activation at 0.1 µM fell in the range of 5 to 20%.

Consider `Cc1noc(-c2ncn3c2Cc2c(Cc4ccccc4)nnn2-c2cc(F)ccc2-3)n1` [Compound 109], for which the activation at 0.1 µM lay in the range of 20 to 50%.

Consider `Cc1noc(-c2ncn3c2Cc2c(C)nnn2-c2cc(F)ccc2-3)n1` [Compound 110], for which the activation at 0.1 µM is 20 to 50%.

In the case of `CCOC(=O)c1ncn2c1Cc1c(Cc3cccnc3)nnn1-c1cc(C)ccc1-2` [Compound 111], the activation at 0.1 µM was in the range of 20 to 50%.

On to `Cc1nnn2c1Cc1c(C(=O)OC(C)C)ncn1-c1ccc(F)cc1-2` [Compound 112], for which the activation at 0.1 µM fell in the range of 5 to 20%.

Take `Cc1nnn2c1Cc1c(C(=O)OCC(C)(C)C)ncn1-c1ccc(F)cc1-2` [Compound 113]: the activation at 0.1 µM is over 50%.

For `Cc1nnn2c1Cc1c(C(=O)OCC(F)(F)F)ncn1-c1ccc(F)cc1-2` [Compound 114], the activation at 0.1 µM is over 50%.

`COc1ccc2c(c1)-c1nnc(COc3ccccc3)n1Cc1c(C(=O)OC(C)C)ncn1-2` [Compound 120]: the activation at 0.1 µM fell in the range of 20 to 50%.

For the compound `Cc1ncn2c1Cc1c(C)nnn1-c1ccccc1-2` [Compound 121], the activation at 0.1 µM lay within 5 to 20%.

Regarding `COc1ccc2c(c1)-c1nnc(COc3ccccc3)n1Cc1c(C#N)ncn1-2` [Compound 122], the activation at 0.1 µM was 5 to 20%.

On to `Cc1noc(-c2ncn3c2Cc2c(C)nnn2-c2ccccc2-3)n1` [Compound 126], for which the activation at 0.1 µM was 20 to 50%.

As for `Cc1nc(-c2ncn3c2Cc2c(C)nnn2-c2ccccc2-3)no1` [Compound 127], the activation at 0.1 µM is 20 to 50%.

Take `COCc1nnc2n1Cc1c(-c3nc(C)no3)ncn1-c1ccc(OC)cc1-2` [Compound 128]: the activation at 0.1 µM was 20 to 50%.

Take `COCc1nnc2n1Cc1c(-c3nc(C(C)C)no3)ncn1-c1ccc(OC)cc1-2` [Compound 130]: the activation at 0.1 µM is 20 to 50%.

As to `Cc1nnn2c1Cc1c(-c3nc(C(C)C)no3)ncn1-c1ccccc1-2` [Compound 132], the activation at 0.1 µM lay in the range of 20 to 50%.

For `Cc1nnn2c1Cc1c(-c3noc(C(C)C)n3)ncn1-c1ccccc1-2` [Compound 133], the activation at 0.1 µM lay within 5 to 20%.

Consider `CCOC(=O)c1ncn2c1Cn1c(COc3ccccc3)nnc1-c1cc(F)ccc1-2` [Compound 137], for which the activation at 0.1 µM lay within 20 to 50%.

For the compound `Cc1nc(-c2ncn3c2Cc2c(C)nnn2-c2cc(F)ccc2-3)no1` [Compound 145], the activation at 0.1 µM was over 50%.

With `CC(C)c1nc(-c2ncn3c2Cn2c(COc4ccccc4)nnc2-c2cc(F)ccc2-3)no1` [Compound 147], the activation at 0.1 µM fell in the range of 20 to 50%.
